{"source": "patent US20250073202A1", "about": "“METHODS TO TREAT RENAL DISORDERS USING CALCIUM CHANNEL INHIBITORS” (The Trustees of Indiana University, priority 2018, published 2025)", "key": {"[1]": {"tested_on": "renal ischemia reperfusion injury", "test": "Bilateral renal ischemia/reperfusion (I/R) injury in rats, 24 hours after reperfusion (Study II)", "assay_type": "in vivo, rat", "experimental": "All studies used male Sprague-Dawley rats (250-300 g) that were purchased from Envigo (Indianapolis, IN). Rats were anesthetized with a cocktail of ketamine (100 mg·kg^−1, KetoVed, Vedco Inc, St. Joseph, MO) and xylazine (50 mg·kg^−1, AnaSed, Lloyd Inc, Shenandoah IA). Rats were placed on a heated surgical table to maintain body temperature. A midline incision and either unilateral (left) or bilateral renal ischemia (as indicated in Results) was induced by applying micro-aneurism clamps on the renal pedicles for a period of 40 min. Re-establishment of perfusion was verified by visual examination following removal of the clamps. Rats were provided post-operative analgesia using buprenorphine-SR (1 mg·kg^−1).\n(§1) Rats were allowed to recover for various periods of time as described in the Results. In Study I, lymphocytes were studied in vitro after recovery for either 2 or 7 days following I/R or sham surgery for evaluation of function in vitro or for FACS analysis. In Study II, the effect of SOCE on kidney injury was studied with the inhibitor YM58483/BPT2 (N-[4-[3,5-Bis(trifluoromethyl)-1H-pyrazol-1-yl]phenyl]-4-methyl-1,2,3-thiadiazole-5-carboxamide; Tocris/Bio-Techne Minneapolis, MN). Rats were pretreated p.o. 2-3 hours prior to surgery with YM58483.BPT2 (1 mg·kg^−1) in sugar-free chocolate pudding following dilution in 100% EtOH, at, a dose previously shown to affect T cell activation in rats. In some experiments, rats were also treated with the IL17Rc (150 ng/day i.p; R&D Systems). In addition, one experiment utilized a model of rhabdomyolysis, induced by injection of 50% glycerol (10 ml/kg) into the hindlimb muscle of rats following 16 hours of water restriction.\nTo measure creatinine, tail blood was collected in heparin containing tubes and centrifuged to collect plasma. Plasma creatinine was measured using a Pointe Scientific Analyzer and Creatinine Assay reagents using methods outlined by the manufacturer (Pointe Scientific, Canton MI). Urine was collected for 24 hours by placing rats in metabolic cages and urine volume was determined gravimetrically. Urine creatinine was measured using a colorimetric assay adopted for microplate readers. Creatinine clearance was measured using UCr*V/PCr. […]\n(§2) Freshly harvested kidneys were minced and digested in liberase (2 μg/ml. Roche, Indianapolis IN) for 15 min at 37° C. using Gentle MACs (Miltenyli, San Diego, CA). The digested tissue was filtered through a 100-μm mesh and washed with RPMI containing 10% fetal bovine serum (Invitrogen). Mononuclear cells were isolated using Percol (Sigma) density gradient centrifugation.\n(§3) To evaluate protein expression of IL17 or Orai1, Orai2 or Orai3, cells were restimulated with PMA and ionomycin for 6 hours in the presence of monensin (Golgistop, 1 μg·ml, BD Biosciences) permeabilized with saponin ([…]) and stained with relevant antibody. Cells were scanned using flow cytometry (FACSCalibur, BD Biosciences, San Jose, CA) and scans were analyzed using Flowjo software (Tree Star, Ashland, OR).\nThe effect of SOCE on early ischemic kidney injury was studied with the inhibitor YM58483/BPT2 (N-[4-[3,5-Bis(trifluoromethyl)-1 H-pyrazol-1-yl]phenyl]-4-methyl-1,2,3-thiadiazole-5-carboxamide; Tocris/Bio-Techne Minneapolis, MN). Rats were pretreated 2-3 hours prior to surgery, p.o. in sugar-free chocolate pudding following dilution in 100% EtOH, at 1 mg·kg^−1, a dose previously shown affect T cell activation in rats. To evaluate if SOCE influences Th17 cells in AKI, rats were fed YM58483/BPT2 approximately 2 hours prior to […] and reperfusion. […] YM58483/2BPT2 also attenuated the infiltration of total CD4+ and CD8+ T-cells, B-cells, and dendritic cells following I/R (FIGS. 3C, 3D, 3E, and 3F)."}, "[2]": {"tested_on": "glycerol-induced kidney injury", "test": "Glycerol-induced kidney injury (rhabdomyolysis model of AKI) in rats, 24 hours following injection", "assay_type": "in vivo, rat", "text": "as §1\nTo measure creatinine, tail blood was collected in heparin containing tubes and centrifuged to collect plasma. Plasma creatinine was measured using a Pointe Scientific Analyzer and Creatinine Assay reagents using methods outlined by the manufacturer (Pointe Scientific, Canton MI). Urine was collected for 24 hours by placing rats in metabolic cages and urine volume was determined gravimetrically. Urine creatinine was measured using a colorimetric assay adopted for microplate readers. Creatinine clearance was measured using UCr*V/PCr.\nas §2, §3"}, "[3]": {"conditions": "24 hours following I/R, listed as YM58483/2BPT2"}, "[4]": {"conditions": "24 hours following I/R, listed as YM58483/BPT"}, "[5]": {"conditions": "24 hours following ischemia reperfusion, mean ± S.E."}, "[6]": {"conditions": "24 hours following glycerol injection, mean ± S.E."}}, "note": "Entries after “also recorded” stand apart in the source; their conditions may differ. Marks after values point to notes of the source that are not given here."}
{"smiles": "Cc1nnsc1C(=O)Nc1ccc(-n2nc(C(F)(F)F)cc2C(F)(F)F)cc1", "note": "[YM58483/BPT2, N-[4-[3,5-Bis(trifluoromethyl)-1H-pyrazol-1-yl]phenyl]-4-methyl-1,2,3-thiadiazole-5-carboxamide]", "values": [{"measurement": "mRNA expression of kidney injury marker-1 (Kim-1)", "setting": "[1]; 24 hours after reperfusion, 1 mg/kg p.o. pretreatment", "value": "significantly attenuated"}, {"measurement": "level of renal injury as plasma creatinine (vs vehicle)", "setting": "[1]; 24 hours after reperfusion, YM58483 1 mg/kg p.o. 2-3 hours prior to surgery", "value": "significantly attenuated; also recorded: significantly reduced"}, {"measurement": "CD8+ cells in kidney (vs vehicle)", "setting": "[1]; 24 hours following I/R", "value": "did not significantly effect"}, {"measurement": "Th1 cells post-ischemia", "setting": "[1]; 24 hours following I/R", "value": "did not significantly influence"}, {"measurement": "Th2 cells post-ischemia", "setting": "[1]; 24 hours following I/R", "value": "did not significantly influence"}, {"measurement": "infiltration of B-cells in kidney", "setting": "[1]; 24 hours following I/R", "value": "attenuated"}, {"measurement": "infiltration of dendritic cells in kidney", "setting": "[1]; 24 hours following I/R", "value": "attenuated"}, {"measurement": "kidney CD4+/IL17+ cells (vs vehicle)", "setting": "[1]; 24 hours following I/R", "value": "reduction was observed"}, {"measurement": "reduction of total IL17 expressing cells relative to vehicle", "setting": "[1]; 24 hours following I/R, 1 mg/kg p.o. pretreatment", "value": "~78", "unit": "%"}, {"measurement": "infiltration of total CD4+ T-cells in kidney (vs vehicle)", "setting": "[1]; 24 hours following I/R, listed as YM58483/2-BPT", "value": "attenuated"}, {"measurement": "CD8+ cells in kidney (vs vehicle)", "setting": "[1]; [3]", "value": "attenuated"}, {"measurement": "infiltration of total CD4+ T-cells in kidney (vs vehicle)", "setting": "[1]; [3]", "value": "attenuated"}, {"measurement": "infiltration of total CD4+ T-cells in kidney (vs vehicle)", "setting": "[1]; [4]", "value": "significantly reduced"}, {"measurement": "kidney CD4+/IL17+ cells (vs vehicle)", "setting": "[1]; [4]", "value": "significantly reduced"}, {"measurement": "CD4+ renal lymphocyte content", "setting": "[1]; [5]", "value": "26156 ± 4365", "unit": "cells/gram"}, {"measurement": "CD4+/IL-17+ cells", "setting": "[1]; [5]", "value": "2020 ± 731", "unit": "cells/gram"}, {"measurement": "CD8+ cells renal lymphocyte content", "setting": "[1]; [5]", "value": "8410 ± 1386", "unit": "cells/gram"}, {"measurement": "CD8+IL-17+ cells", "setting": "[1]; [5]", "value": "127 ± 23", "unit": "cells/gram"}, {"measurement": "Serum Creatinine", "setting": "[1]; [5]", "value": "3.7 ± 0.6", "unit": "mg/dL"}, {"measurement": "Total IL-17+ cells", "setting": "[1]; [5]", "value": "9334 ± 4293", "unit": "cells/gram"}, {"measurement": "CD4+ cells per g", "setting": "[2]; [6]", "value": "177606 ± 282", "unit": "cells per g"}, {"measurement": "CD4+/IL-17+ cells per g", "setting": "[2]; [6]", "value": "20622 ± 4191* cells per g"}, {"measurement": "CD8+ cells per g", "setting": "[2]; [6]", "value": "342433 ± 76011", "unit": "cells per g"}, {"measurement": "CD8+/IL-17+ cells per g", "setting": "[2]; [6]", "value": "19711 ± 6499* cells per g"}, {"measurement": "Serum Creatinine", "setting": "[2]; [6]", "value": "3.3 ± 0.4* mg/dl"}, {"measurement": "Total IL-17+ cells per g", "setting": "[2]; [6]", "value": "60109 ± 21033* cells per g"}, {"measurement": "rise in serum creatinine", "setting": "[2]; glycerol model, 24 hours", "value": "significantly attenuated"}, {"measurement": "total number of IL17+ expressing cells", "setting": "[2]; glycerol model, 24 hours", "value": "significantly attenuated"}]}
